Assay: solvent given as SMILES

FS(F)(F)(F)(F)F
Details | solvation free energy, 298 K [kcal/mol]
in Brc1ccccc1 | 0.67
in C1CCOC1 | 0.05
in C1COCCO1 | 0.52
in CC1COC(=O)O1 | 0.98
in CC#N | 0.25
in CC(=O)N(C)C | 0.76
in CC(C)(C)O | -0.11
in CC(C)=O | -0.07
in CC(C)CC(C)(C)C | -0.47
in CC(C)CO | 0.1
in CCC(C)O | 0.26
in CCCCCC | -0.41
in CCCCCCC | -0.32
in CCCCCCCC | -0.23
in CCCCCCCCC | -0.16
in CCCCCCCCCC | -0.06
in CCCCCCCCCCC | 0
in CCCCCCCCCCCC | 0.06
in CCCCCCCCCCCCC | 0.12
in CCCCCCCCCCCCCC | 0.15
in CCCCCCCCCCCCCCC | 0.18
in CCCCCCCCCCCCCCCC | 0.22
in CCCCCCCCCCCO | 0.49
in CCCCCCCCCCO | 0.47
in CCCCCCCCCO | 0.43
in CCCCCCCCO | 0.41
in CCCCCCCO | 0.37
in CCCCCCO | 0.34
in CCCCCO | 0.29
in CCCCO | 0.26
in CCCO | 0.18
in CCO | 0.14
in CN(C)C=O | 0.83
in CN(C)P(=O)(N(C)C)N(C)C | 0.66
in CNC=O | 1.02
in CO | 0.26
in CS(C)=O | -0.05
in Cc1ccc(C)cc1 | 0.19
in Cc1cccc(C)c1 | 0.19
in Cc1ccccc1C | 0.27
in ClC(Cl)(Cl)Cl | -0.03
in Clc1ccccc1 | 0.35
in N#Cc1ccccc1 | 0.71
in O | 3.04
in O=C1CCCC1 | 0.49
in O=C1CCCCC1 | 0.52

CCCCCCCC=O
Details | solvation free energy, 298 K [kcal/mol]
in CCCCCCCCCCCCCCCC | -5.82
in CCCCCCCCO | -7.26
in NC=O | -4.31
in O | -2.29

CC(C)CC(=O)CC(C)C
Details | solvation free energy, 298 K [kcal/mol]
in CCCCCCC | -6.13

O=[N+]([O-])c1ccccc1
Details | solvation free energy, 298 K [kcal/mol]
in CCCCCC | -6.09
in CCCCCCC | -6.14
in CCCCCCCCCCCCCCCC | -6.12
in O | -4.23

Cc1cccc(C)c1O
Details | solvation free energy, 298 K [kcal/mol]
in CC(C)CC(C)(C)C | -6.55
in O | -5.26

Cc1cc(C)nc(NS(=O)(=O)c2ccc(N)cc2)n1
Details | solvation free energy, 298 K [kcal/mol]
in O | -20

CCCCC(C)C
Details | solvation free energy, 298 K [kcal/mol]
in C=CCCCCCCCCCCCCCC | -3.96
in CC#N | -2.99
in O | 2.93

CCCCCCCCCCCCCCC
Details | solvation free energy, 298 K [kcal/mol]
in O | 4.29

C=C1C2CCC(C2)C1(C)C (stereo unspecified)
Details | solvation free energy, 298 K [kcal/mol]
in O | 0.61

CC(=O)OCC1=CCC2CC1C2(C)C (stereo unspecified)
Details | solvation free energy, 298 K [kcal/mol]
in O | -3.6

COC
Details | solvation free energy, 298 K [kcal/mol]
in Brc1ccccc1 | -2.1
in CC(C)(C)O | -2.25
in CC(C)CCO | -1.99
in CC(C)CO | -2.1
in CC(C)O | -2.13
in CCC(C)(C)O | -2.22
in CCC(C)CO | -2.05
in CCC(C)O | -2.1
in CCC(O)CC | -2.18
in CCCC(C)O | -2.05
in CCCCCC | -1.79
in CCCCCCCCO | -1.87
in CCCCCO | -1.98
in CCCCO | -2.05
in CCCO | -2.1
in CN(C)C=O | -2.13
in CO | -2.31
in COC(C)=O | -2.33
in Cc1ccc(C)cc1 | -2.03
in Cc1cccc(C)c1 | -2.05
in Cc1ccccc1C | -2.04
in Clc1ccccc1 | -2.18
in Ic1ccccc1 | -2.03
in O | -1.91

CCCCCCCOC(=O)c1ccccc1C(=O)OCCCCCC
Details | solvation free energy, 298 K [kcal/mol]
in O | -6.67

Clc1ccc(Cl)c(-c2cc(Cl)ccc2Cl)c1
Details | solvation free energy, 298 K [kcal/mol]
in CCCCCCCCO | -11.2
in O | -2.55

C=CCC
Details | solvation free energy, 298 K [kcal/mol]
in C1CCCCC1 | -2.47
in CC#N | -1.86
in CC(C)(C)O | -2.03
in CC(C)CC(C)(C)C | -2.26
in CC(C)CCO | -1.99
in CC(C)CO | -1.98
in CC(C)O | -1.98
in CCC(C)(C)O | -2.1
in CCC(C)CO | -1.98
in CCC(C)O | -1.99
in CCC(O)CC | -2.01
in CCCC(C)O | -2.01
in CCCCC | -2.53
in CCCCCC | -2.49
in CCCCCCC | -2.48
in CCCCCCCC | -2.45
in CCCCCCCCC | -2.43
in CCCCCCCCCC | -2.42
in CCCCCO | -2.01
in CCCCO | -2.01
in CCCO | -2.01
in CN(C)C=O | -1.78
in CO | -1.83
in COC(C)=O | -2.21
in Cc1ccc(C)cc1 | -2.33
in Cc1cccc(C)c1 | -2.3
in Cc1ccccc1C | -2.31
in ClC(Cl)(Cl)Cl | -2.5
in O | 1.36
in O=CN1CCOCC1 | -1.28

From the CombiSolv-Exp solvation set (Vermeire and Green 2021)
